Test results reported in patent US20140329692A1, “METHOD FOR MEASURING DNA METHYLATION PROFILES” (ALBERT EINSTEIN COLLEGE OF MEDICINE OF YESHIVA UNIVERSITY, priority 2013, published 2014).

Tests used:
[1] = tested on: promoter region of Oct4; test: DNA methylation profile of the Oct4 promoter in 5-Aza-treated MEFs (bisulfite treatment, MDA amplification, nested PCR, Sanger sequencing); format: cell-based, mouse; conditions: 1 μM 5-Aza
Text: To definitively test the protocol, it was investigated whether it was capable of directly detecting epimutations, i.e., random changes in methylation status of single cytosines as a consequence of, for example, errors in de novo or maintenance methylation. While estimates of DNA methylation accuracy have been reported (13, 14), it has never been possible to directly determine such epimutations. To test if the method was able to detect single cell-specific epimutations, a time course experiment was performed in MEFs treated with 5-azacytidine (5-Aza). 5-Aza prevents methylation at CpG sites in newly synthesized DNA through covalent binding to Dnmt1 (15). […] Cultured cells were treated with 1 μM 5-Aza for 48 and 72 hours; ten single cells as well as 100-cell controls from each treatment group were subjected to lysis and bisulfite treatment followed by MDA amplification. Then the promoter region of Oct4 was tested and it was shown that a fully methylated pattern of CpG sites was present in the untreated single fibroblasts as well as in the 100-cell control (FIG. 1B, upper panel).
Isolation of single mouse embryonic fibroblasts: Mouse embryonic fibroblasts (MEFs) were isolated from embryonic day 13.5 embryos of C57BL/6 mice as described (31). All cultures were maintained in a 3% O2 and 5% CO2 atmosphere. The solutions of 5-aza-2′-deoxycytidine (5-Aza; Sigma, St. Louis, Mo., USA) in culturing medium were prepared at the time of application and applied every 24 hours for 72 hours. After trypsinization, single MEFs were collected under an inverted microscope by hand-held capillaries, deposited in PCR tubes and immediately frozen on dry ice and stored at […] until needed or immediately bisulfite-converted.
Bisulfite conversion: The bisulfite conversion and recovery of DNA were performed using the EZ DNA Methylation-Direct Kit (Zymo Research, Orange, Calif.). Bisulfite conversion was performed according to the instructions of the supplier with some modifications. First the bisulfite solution was added to the single or 100 cells together with 2 ng of salmon sperm DNA or tRNA. […]

[2] = tested on: global methylation; conditions: 5-Aza treatment; cited from earlier work

Nc1ncn([C@H]2C[C@H](O)[C@@H](CO)O2)c(=O)n1 [5-Aza, 5-aza-2′-deoxycytidine]
demethylation of Oct4 promoter ([1]; 48 hours, 100-cell sample): < 50%
methylation status of Oct4 promoter CpG sites ([1]; 48 hours, single fibroblasts): a mixed population was found comprising either methylated or unmethylated cytosines
methylation status of Oct4 promoter CpG sites ([1]; 72 hours, both single fibroblasts and 100-cell control sample): fully demethylated
global methylation [2]: significant decrease in global methylation
